# Measured values as given in US20070185094A1, “Novel 3-substitued-1,4-benzodiazepines” (ASTON UNIVERSITY, priority 2003, published 2007).
# Read-outs that look alike come from different tables or passages of the source.
# Tests used:
# [1] = target: T1, CCKB receptor (Cavia porcellus, UniProt H0VZC5); assay: 125I-CCK-8 receptor binding assay, CCKB (guinea pig cerebral cortex)
# T1 sequence (H0VZC5 1-426): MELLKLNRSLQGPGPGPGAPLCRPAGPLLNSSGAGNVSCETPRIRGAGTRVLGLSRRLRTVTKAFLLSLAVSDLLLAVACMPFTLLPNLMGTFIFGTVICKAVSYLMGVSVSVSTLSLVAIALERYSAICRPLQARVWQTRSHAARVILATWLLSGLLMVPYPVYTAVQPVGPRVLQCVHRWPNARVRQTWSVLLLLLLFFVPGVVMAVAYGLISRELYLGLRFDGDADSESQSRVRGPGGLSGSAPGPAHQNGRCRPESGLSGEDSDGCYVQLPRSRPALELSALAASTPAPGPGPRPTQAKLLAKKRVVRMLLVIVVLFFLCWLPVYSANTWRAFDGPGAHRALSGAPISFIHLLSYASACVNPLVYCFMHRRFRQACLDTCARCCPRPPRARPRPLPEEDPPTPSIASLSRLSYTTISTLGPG
# Method: CCKA and CCKB receptor binding assays were performed, by using guinea pig cerebral cortex (CCKB) or rat pancreas (CCKA). […]. J. Pharmacol., 269, 249-254]. Pancreatic membranes were prepared in a similar way but by Charpentier et al [(1988), Cyclic cholecystokinin analogues with high selectivity for central receptors., Proc Natl Acad Sci USA, 85, 1968-1972]. The […] CCK binding assay: Tissues were homogenised in ice cold sucrose (0.32 M, 25 ml) for 15 strokes at 500 rpm and centrifuged at 13000 rpm for 10 mins. The supernatant was re-centrifuged at 13000 rpm for 20 mins. The resulting pellet was re-dispersed to the required volume of buffer at 500 rpm and stored in aliquots at […].
# (§1) The samples were incubated {with membranes (0.1 mg/ml)} in 20 mM Hepes, 1 mM EGTA, 5 mM MgCl2, 150 mm NaCl, 0.25 mg/ml bacitracin at pH 6.5 for 2 hrs at RT and then […] by centrifugation at 1100 rpm for 5 minutes. The membrane pellets were washed twice with water and the bound radioactivity was measured in a Packard Cobra Auto-gamma counter (B5005). All binding assays were carried out with L-363, 260 as an internal non-specific standard. Controls (no compound) were also added. All samples were made in duplicate and repeated twice. All compounds were initially screened for percentage inhibition at 20 μM.
# [2] = target: T2, CCKA receptor (Rattus norvegicus, UniProt P30551); assay: 125I-CCK-8 receptor binding assay, CCKA (rat pancreas); conditions: for Ratio CCKB:CCKA: ratio of IC50 values
# T2 construct: Pancreatic membranes were prepared in a similar way; from tissue; host or cells: rat pancreas membranes
# T2 sequence (P30551 1-444): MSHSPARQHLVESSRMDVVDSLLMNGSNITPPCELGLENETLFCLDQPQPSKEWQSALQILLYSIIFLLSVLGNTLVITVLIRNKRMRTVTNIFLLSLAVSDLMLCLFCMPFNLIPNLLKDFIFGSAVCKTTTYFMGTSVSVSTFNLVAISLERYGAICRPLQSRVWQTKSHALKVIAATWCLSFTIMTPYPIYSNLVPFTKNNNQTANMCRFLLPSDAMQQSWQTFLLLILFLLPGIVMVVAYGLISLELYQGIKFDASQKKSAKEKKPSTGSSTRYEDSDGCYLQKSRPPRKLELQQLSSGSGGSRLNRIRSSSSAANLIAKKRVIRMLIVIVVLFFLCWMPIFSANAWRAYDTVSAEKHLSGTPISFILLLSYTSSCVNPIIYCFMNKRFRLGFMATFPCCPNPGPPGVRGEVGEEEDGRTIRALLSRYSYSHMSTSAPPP
# Method: CCKA and CCKB receptor binding assays were performed, by using guinea pig cerebral cortex (CCKB) or rat pancreas (CCKA). Male guinea pig brain tissues were prepared according to the modified method described by Saita et al [(1994), Characterization of YM022: its CCKB/gastrin receptor binding profile and antagonism to CCK-8-induced Ca2+ mobilization., Eur. J. Pharmacol., 269, 249-254]. Pancreatic membranes were prepared in a similar way but by Charpentier et al [(1988), Cyclic cholecystokinin analogues with high selectivity for central receptors., Proc Natl Acad Sci USA, 85, 1968-1972]. The […] CCK binding assay: Tissues were homogenised in ice cold sucrose (0.32 M, 25 ml) for 15 strokes at 500 rpm and centrifuged at 13000 rpm for 10 mins. The supernatant was re-centrifuged at 13000 rpm for 20 mins. The resulting pellet was re-dispersed to the required volume of buffer at 500 rpm and stored in aliquots at […].
# as §1
# [3] = IC50 CCKB, Table 4, alkylated oxazepam derivatives
smiles,measurement,setting,value
"CCCNC1N=C(c2ccccc2)c2cc(Cl)ccc2NC1=O (stereo not drawn) [Example 28, 3-(propylamino)-7-chloro-5-phenyl-1,3-dihydro-2H-1,4-benzodiazepin-2-one]",IC50,"[1]; IC50 CCKB, Table 2",8900 nM
"O=C1Nc2ccc(Cl)cc2C(c2ccccc2)=NC1NCc1ccccc1 (stereo not drawn) [Example 23, 3-(benzylamino)-7-chloro-5-phenyl-1,3-dihydro-2H-1,4-benzodiazepin-2-one]",IC50,"[1]; IC50 CCKB, Table 2",6000 nM
CCCCc1ccc(NC2N=C(c3ccccc3)c3cc(Cl)ccc3NC2=O)cc1 (stereo not drawn) [Example 3],IC50,"[1]; CCKB IC50, Table 1",580 nM
"C#CCN1C(=O)C(O)N=C(c2ccccc2)c2cc(Cl)ccc21 (stereo not drawn) [Example 58, 7-chloro-3-hydroxy-5-phenyl-1-prop-2-ynyl-1,3-dihydro-2H-1,4-benzodiazepin-2-one]",IC50,[1]; [3],960 nM
COc1ccccc1NC1N=C(c2ccccc2)c2cc(Cl)ccc2NC1=O (stereo not drawn) [Example 41],IC50,"[1]; IC50 CCKB, Table 3",1500 nM
same,IC50,[2]; Table 3,> 20000 nM
"O=C1C(O)N=C(c2ccccc2)c2cc(Cl)ccc2N1Cc1ccccc1 (stereo not drawn) [Example 59, 7-chloro-3-hydroxy-5-phenyl-1-benzyl-1,3-dihydro-2H-1,4-benzodiazepin-2-one]",IC50,[1]; [3],760 nM
Cc1ccc(NC2N=C(c3ccccc3)c3cc(Cl)ccc3NC2=O)cc1C (stereo not drawn) [Example 4],IC50,"[1]; CCKB IC50, Table 1",660 nM
Cc1ccc(NC2N=C(c3ccccc3)c3cc(Cl)ccc3NC2=O)cc1 (stereo not drawn) [Example 46],IC50,"[1]; IC50 CCKB, Table 3",4600 nM
same,IC50,[2]; Table 3,290 nM
same,Ratio CCKB:CCKA,[2]; Table 3,16
"Cc1ccc(NC2N=C(c3ccccc3)c3cc(Cl)ccc3NC2=O)cc1C (stereo not drawn) [Example 31, 7-chloro-3-(3,4-dimethylanilino)-5-phenyl-1,3-dihydro-2H-1,4-benzodiazepin-2-one]",IC50,[1]; IC50 CCKB,920 nM
"O=C1Nc2ccc(Cl)cc2C(c2ccccc2)=NC1Nc1cccc(Cl)c1 (single isomer, unassigned) [Example 2]",IC50,"[1]; CCKB IC50, Table 1",320 nM
"CCN(C1CCCCC1)C1N=C(c2ccccc2)c2cc(Cl)ccc2NC1=O (stereo not drawn) [Example 34, 7-chloro-3-(ethylcyclohexylamino)-5-phenyl-1,3-dihydro-2H-1,4-benzodiazepin-2-one]",IC50,"[1]; IC50 CCKB, Table 2",> 15000 nM
O=C1Nc2ccc(Cl)cc2C(c2ccccc2)=NC1Nc1cccc([N+](=O)[O-])c1 (stereo not drawn) [Example 36],IC50,"[1]; IC50 CCKB, Table 3",6000 nM
same,IC50,[2],11 nM
same,Ratio CCKB:CCKA,[2]; Table 3,545
O=C1Nc2ccc(Cl)cc2C(c2ccccc2)=NC1Nc1ccc([N+](=O)[O-])cc1 (stereo not drawn) [Example 37],IC50,"[1]; IC50 CCKB, Table 3",8500 nM
same,IC50,[2]; Table 3,> 20000 nM
Cc1c(NC2N=C(c3ccccc3)c3cc(Cl)ccc3NC2=O)c(=O)n(-c2ccccc2)n1C (stereo not drawn) [Example 13],IC50,"[1]; Table 2, read-out: IC50 CCKB",9300 nM
"O=C1Nc2ccc(Cl)cc2C(c2ccccc2)=NC1Nc1ccccc1 (stereo not drawn) [Example 22, 3-anilino-7-chloro-5-phenyl-1,3-dihydro-2H-1,4-benzodiazepin-2-one]",IC50,"[1]; IC50 CCKB, Table 2",4100 nM
Cc1cccc(C)c1NC1N=C(c2ccccc2)c2cc(Cl)ccc2NC1=O (stereo not drawn) [Example 47],IC50,"[1]; IC50 CCKB, Table 3",> 10000 nM
same,IC50,[2]; Table 3,10000 nM
"O=C1Nc2ccc(Cl)cc2C(c2ccccc2)=NC1Nc1ccccc1[N+](=O)[O-] (stereo not drawn) [Example 35, 7-chloro-3-(2-nitroanilino)-5-phenyl-1,3-dihydro-2H-1,4-benzodiazepin-2-one]",IC50,"[1]; IC50 CCKB, Table 3",7500 nM
same,IC50,[2]; Table 3,> 20000 nM
CCN(c1cccc(C)c1)C1N=C(c2ccccc2)c2cc(Cl)ccc2NC1=O (stereo not drawn) [Example 56],IC50,"[1]; IC50 CCKB, Table 3",650 nM
same,IC50,[2]; Table 3,330 nM
same,Ratio CCKB:CCKA,[2]; Table 3,2
"CC(C)N(C1CCCCC1)C1N=C(c2ccccc2)c2cc(Cl)ccc2NC1=O (single isomer, unassigned) [Example 8]",IC50,[1]; IC50 CCKB,190 nM
"COc1ccc(NC2N=C(c3ccccc3)c3cc(Cl)ccc3NC2=O)cc1 (stereo not drawn) [Example 43, 7-chloro-3-(4-methoxyanilino)-5-phenyl-1,3-dihydro-2H-1,4-benzodiazepin-2-one]",IC50,"[1]; IC50 CCKB, Table 3",> 10000 nM
same,IC50,[2]; Table 3,≥ 20000 nM
"O=C1Nc2ccc(Cl)cc2C(c2ccccc2)=NC1N1CCCCC1 (stereo not drawn) [Example 32, 7-chloro-3-(piperidin-1-yl)-5-phenyl-1,3-dihydro-2H-1,4-benzodiazepin-2-one]",IC50,"[1]; IC50 CCKB, Table 2",> 15000 nM
"COc1ccc(NC2N=C(c3ccccc3)c3cc(Cl)ccc3NC2=O)cc1OC (stereo not drawn) [Example 20, 7-chloro-3-(3,4-dimethoxyanilino)-5-phenyl-1,3-dihydro-2H-1,4-benzodiazepin-2-one]",IC50,"[1]; IC50 CCKB, Table 2",1200 nM
"O=C1Nc2ccc(Cl)cc2C(c2ccccc2)=NC1NC1CCCCC1 (stereo not drawn) [Example 30, 7-chloro-3-(cyclohexylamino)-5-phenyl-1,3-dihydro-2H-1,4-benzodiazepin-2-one]",IC50,"[1]; IC50 CCKB, Table 2",10100 nM
"CN(c1ccccc1)C1N=C(c2ccccc2)c2cc(Cl)ccc2NC1=O (stereo not drawn) [Example 24, 7-chloro-3-(methylanilino)-5-phenyl-1,3-dihydro-2H-1,4-benzodiazepin-2-one]",IC50,[1]; IC50 CCKB,150 nM
"O=C(CN1C(=O)C(O)N=C(c2ccccc2)c2cc(Cl)ccc21)c1ccccc1 (stereo not drawn) [Example 62, 7-chloro-3-hydroxy-5-phenyl-1-phenacyl-1,3-dihydro-2H-1,4-benzodiazepin-2-one]",IC50,[1]; [3],200 nM
"O=C1Nc2ccc(Cl)cc2C(c2ccccc2)=NC1N1CCCc2ccccc21 (stereo not drawn) [Example 17, 7-chloro-3-[3,4-dihydroquinolin-1(2H)-yl]-5-phenyl-1,3-dihydro-2H-1,4-benzodiazepin-2-one]",IC50,"[1]; IC50 CCKB, Table 2",7200 nM
"COc1cc(NC2N=C(c3ccccc3)c3cc(Cl)ccc3NC2=O)cc(OC)c1C(C)=O (stereo not drawn) [Example 21, 3-(4-acetyl-3,5-dimethoxyanilino)-7-chloro-5-phenyl-1,3-dihydro-2H-1,4-benzodiazepin-2-one]",IC50,"[1]; Table 2, read-out: IC50 CCKB",5300 nM
CN(Cc1ccccc1)C1N=C(c2ccccc2)c2cc(Cl)ccc2NC1=O (stereo not drawn) [Example 25],IC50,"[1]; IC50 CCKB, Table 2",2900 nM
"CC(=O)c1ccccc1NC1N=C(c2ccccc2)c2cc(Cl)ccc2NC1=O (stereo not drawn) [Example 18, 3-(2 acetylanilino)-7-chloro-5-phenyl-1,3-dihydro-2H-1,4-benzodiazepin-2-one]",IC50,"[1]; IC50 CCKB, Table 2",8400 nM
O=C1Nc2ccc(Cl)cc2C(c2ccccc2)=NC1N1CCOCC1 (stereo not drawn) [Example 11],IC50,"[1]; CCKB IC50, Table 1",2700 nM
"CN(Cc1ccccc1)C1N=C(c2ccccc2)c2cc(Cl)ccc2NC1=O (single isomer, unassigned) [Example 6]",IC50,"[1]; CCKB IC50, Table 1",860 nM
COc1cccc(NC2N=C(c3ccccc3)c3cc(Cl)ccc3NC2=O)c1 (stereo not drawn) [Example 42],IC50,[2],10 nM
same,Ratio CCKB:CCKA,[2]; Table 3,450
"C=CCN1C(=O)C(O)N=C(c2ccccc2)c2cc(Cl)ccc21 (stereo not drawn) [Example 60, 7-chloro-3-hydroxy-5-phenyl-1-allyl-1,3-dihydro-2H-1,4-benzodiazepin-2-one]",IC50,[1]; [3],980 nM
"CC(C)N(C1CCCCC1)C1N=C(c2ccccc2)c2cc(Cl)ccc2NC1=O (stereo not drawn) [Example 33, 7-chloro-3-(isopropylcyclohexylamino)-5-phenyl-1,3-dihydro-2H-1,4-benzodiazepin-2-one]",IC50,"[1]; IC50 CCKB, Table 2",> 15000 nM
"CCOC(=O)N1C(=O)C(O)N=C(c2ccccc2)c2cc(Cl)ccc21 (stereo not drawn) [Example 61, 7-chloro-3-hydroxy-5-phenyl-1-ethoxycarbonyl-1,3-dihydro-2H-1,4-benzodiazepin-2-one]",IC50,[1]; [3],690 nM
"COc1cccc(NC2N=C(c3ccccc3)c3cc(Cl)ccc3NC2=O)c1 (stereo not drawn) [Example 19, 7-chloro-3-(3-methoxyanilino)-5-phenyl-1,3-dihydro-2H-1,4-benzodiazepin-2-one]",IC50,"[1]; IC50 CCKB, Table 2",1500 nM
